Experimental data published in the supplement of paper PMC3974653.
Structures can show the parent of a compound that is named as a salt.

What follows are compounds tested on MTT (mouse pheochromocytoma) (assay: IC50 of cell viability (ATP content)). Conditions: (24 or 48 h).
In short: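 Cells of the MTT mouse pheochromocytoma line, 5 µl per well at 200,000 cells/ml, were grown overnight at 37°C, 5% CO2 in white 1536-well plates with DMEM, 5% FBS and 1% horse serum. Pintool transfer then delivered 23 nl of library compound in DMSO, giving 8 final concentrations from 0.5 nM to 46 µM, for an exposure of 24 or 48 hrs. Luminescence from CellTiter-Glo was read after 15 minutes and referenced to positive-control wells (100%) and DMSO wells (0%). IC50 was calculated with a four-parameter logistic fit.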

IC50 of cell viability [µM] | SMILES
> 46 | CCOc1ccc2nc3cc(N)ccc3c(N)c2c1 [ACRINOL]
> 46 | CCOC(=O)C(C)(C)Oc1ccc(Cl)cc1 [Clofibrate]
> 46 | CN(C(=O)CO)c1c(I)c(C(=O)NCC(O)CO)c(I)c(C(=O)NCC(O)CO)c1I (stereo not drawn) [Iomeprol]
> 46 | NC(=S)N/N=C/c1cccnc1 [Nicothiazone]
> 46 | Cc1cc(C(=O)NCCc2ccc([S+](=O)([O-])NC(=O)NN3CCCCCC3)cc2)no1 [Glisoxepide]
> 46 | C[C@H](N[C@@H](C)COc1ccccc1)[C@H](O)c1ccc(O)cc1 [Isoxsuprine hydrochloride]
> 46 | COC(=O)\C1=C(/C)N\C(=C(/C1C2=C(C=CC=C2)[N+]([O-])=O)C(=O)OC)C [NIFEDIPINE]
> 46 | CCCCCCCCCCCC(=O)OCC(O)C1OCC(O)C1O (stereo not drawn) [SORBITANI LAURAS]
> 46 | NCCCCC(NC(=O)C1CCCN1C(=O)C1CSSCC(N)C(=O)NC(Cc2ccc(O)cc2)C(=O)NC(Cc2ccccc2)C(=O)NC(CCC(N)=O)C(=O)NC(CC(N)=O)C(=O)N1)C(=O)NCC(N)=O (stereo not drawn) [Lypressin]
> 46 | CCCCCCCCOc1ccccc1C(=O)Nc1ccc(C(=O)OCC[N+](C)(CC)CC)cc1 [OCTYLONIUM BROMIDE]
> 46 | CC(=O)Oc1cccc(C(=O)O)c1OC(C)=O [DIPYROCETYL]
> 46 | CCCC1=NC(=C([N]1CC2=CC=C(C=C2)C3=CC=CC=C3C4=N[NH]N=N4)C(=O)OCC/5=C(C)/OC(=O)O5)C(C)(C)O [OLMESARTAN MEDOXOMIL]
> 46 | N[C@H](Cc1c[nH]c2ccccc12)C(=O)O [D-TRYPTOPHAN]
> 46 | COc1ccc(Cc2cnc(N)nc2N)cc1OC [DIAVERIDINUM]
> 46 | Cc1oncc1C(=O)Nc1ccc(C(F)(F)F)cc1 [Leflunomide]
> 46 | CC1CCC2=C3N1\C=C(C(O)=O)/C(=O)C3=CC(=C2)F (stereo not drawn) [FLUMEQUINE]
> 46 | CSc1ccc2c(c1)C(N1CCN(C)CC1)Cc1ccccc1S2 (stereo not drawn) [METHIOTHEPIN]
> 46 | CN(CC1(C)CCCO1)[S+](=O)([O-])c1ccc(Cl)c([S+](N)(=O)[O-])c1 (stereo not drawn) [MEFRUSIDE]
> 46 | COc1cc2[nH]c(C)c(CCN3CCN(c4ccccc4)CC3)c2cc1OC [Equipertine hydrochloride]

IC50 of cell viability [µM] | SMILES
> 46 | CC(=O)[C@H]1CC[C@H]2C3CC=C4C[C@@H](O)CC[C@]4(C)C3CC[C@]12C (stereo partly drawn) [Pregnenolona]
> 46 | NCC(O)CC(=O)O (stereo not drawn) [AMINOHYDROXYBUTYRIC ACID]
> 46 | [Na+].CCN1CCN(C(=O)N[C@H](C(=O)N[C@H]2[C@@H]3SC(C)(C)[C@@H]([N@]3C2=O)C([O-])=O)C4=CC=CC=C4)C(=O)C1=O [Piperacillin sodium salt]
> 46 | Clc1ccccc1-c1nc(-c2ccncc2)no1 [PIFEXOLUM]
> 46 | O=NCc1ccc([N+](=O)[O-])o1 [NIFUROXIME]
> 46 | C=NC(C(=O)NC1C(=O)N2C1SC(C)(C)C2C(=O)[O-])c1ccccc1.[Na+] (stereo not drawn) [METAMPICILLIN SODIUM]
> 46 | N[C@@H](Cc1cc(I)c(Oc2cc(I)c(O)c(I)c2)c(I)c1)C(=O)O [Levothyroxine]
> 46 | CCCCC(CC)COC(=O)C(C#N)=C(c1ccccc1)c1ccccc1 (stereo not drawn) [Octocrylene]
> 46 | C[S+](C)CC[C@H](N)C(=O)O [METHYLMETHIONINE SULFONIUM CHLORIDE]
> 46 | CC(C)(C)NC[C@H](O)COc1cccc2c1CCCC2=O [(-) -Levobunolol hydrochloride]
> 46 | CNCCCC12CCC(c3ccccc31)c1ccccc12 [MAPROTILINE]
> 46 | OCCc1ccccc1 [2-Phenylethanol]
> 46 | CC(=O)Oc1cccc(O)c1 [RESORCINOL MONOACETATE]
> 46 | C=C1[C@@H]2CC[C@H](C2)C1(C)C [CAMPHENE]
> 46 | CC(C)CCCC(C)CCCC(C)CCCCC(C)CCCC(C)CCCC(C)C (stereo not drawn) [HEXAMETHYLTETRACOSANE]
> 46 | O=C(O)CCCCCCCC(=O)O [Nonanedioic acid]
> 46 | OC/C=C/c1ccccc1 [Cinnamyl alcohol]
> 46 | CN(C)CCN1C(=O)c2ccccc2N(C)c2ccccc21 [Dibenzepina]
> 46 | O=C(Nc1ccc(Oc2ccc(Cl)cc2)c(Cl)c1)c1cc(I)cc(I)c1O [Rafoxanide]

SMILES | IC50 of cell viability [µM]
CO[C@H]1[C@@H](O)CC(O[C@@H]1C)OC2[C@@H](O)CC(O[C@@H]2C)OC3[C@@H](O)C[C@@H](O[C@@H]3C)OC4CC[C@@]5(C)C(CCC6C5CC(O)[C@]7(C)[C@@H](CCC67O)C/8=C/C(=O)OC8)C4 (stereo partly drawn) [METILDIGOXIN] | > 46
CCOP(=S)(OCC)Oc1cc(C)nc(C(C)C)n1 [Diazinon] | > 46
CC(=O)N[C@@H]1CCSC1=O (racemic) [N-Acetyl-DL-homocysteine Thiolactone] | > 46
C[C@]1(O)CC[C@H]2[C@@H]3CCC/4=C/C(=O)CC[C@]4(C)[C@H]3CC[C@]12C [METHYLTESTOSTERONE] | > 46
CCCN(CCC)CCc1c[nH]c2ccccc12 [N,N-Dipropyltryptamine] | > 46
COc1cc(CC(C)N)cc2c1OCO2 (stereo not drawn) [(?)-3-Methoxy-4,5-methylenedioxyamphetamine] | > 46
CCC1CC2CC3c4[nH]c5ccc(OC)cc5c4CCN(C2)C13 (stereo not drawn) [Ibogaine] | > 46
CCO[P](=S)(OCC)OC1=CC=C2\C(=C(Cl)/C(=O)OC2=C1)C [COUMOPHOS] | > 46
O=C(N[C@@H]1N=C(c2ccccc2F)c2cccc3c2N(CC3)C1=O)c1cc2ccccc2[nH]1 [Pranazepide] | > 46
CC(=O)[C@@]1(O)CC[C@@H]2[C@@H]3CCC/4=C/C(=O)CC[C@]4(C)[C@]3(F)[C@@H](O)C[C@]12C [Flugestone] | > 46
NCC1CCC(N)C(O[C@@H]2C(O)[C@H](O[C@H]3OC(CO)C(O)C(N)C3O)[C@@H](N)C[C@H]2N)O1.O=[S+]([O-])(O)O (stereo partly drawn) [DIBEKACIN] | > 46
CCOC(=O)CC(SP(=S)(OC)OC)C(=O)OCC (stereo not drawn) [MALATHION] | > 46
F/C(COc1ccc2c(c1)[nH]c1ccccc12)=C1/CN2CCC1CC2 | > 46
C#CCOC(C(=O)OCCN(C)C)(c1ccccc1)c1ccccc1 [PARGEVERINUM] | > 46
Cc1c(N)nc([C@@H](CC(N)=O)NC[C@H](N)C(N)=O)nc1C(=O)N[C@H](C(=O)N[C@H](C)[C@H](O)[C@H](C)C(=O)N[C@@H](C(=O)NCCc1nc(-c2nc(C(=O)NCCC[S+](C)C)cs2)cs1)[C@H](C)O)[C@H](O[C@@H]1O[C@@H](CO)[C@@H](O)[C@H](O)[C@@H]1O[C@H]1O[C@H](CO)[C@H](O)[C@H](OC(N)=O)[C@@H]1O)c1c[nH]cn1 [Bleomycin Sulfate] | > 46
